Source: article PMC11396129, “Oxindole–benzothiazole hybrids as CDK2 inhibitors and anticancer agents: design, synthesis and biological evaluation” (BMC Chemistry, 2024)

Experiments:
U251 = assay: NCI 60 panel growth inhibition (SRB), CNS cancer; format: cell-based, human; conditions: U251, 10 μM
Outline: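 Cells were plated at 5000–40,000/well and drug was added after 24 h at five concentrations (10-fold or ½ log dilutions), with TCA-fixed time-zero plates as reference. Growth was measured by SRB absorbance, percentage growth was computed against time-zero and control, and TGI was taken at Ti = Tz.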

LOX IMVI = assay: NCI 60 panel growth inhibition (SRB), melanoma; format: cell-based, human; conditions: 10 μM
Method: (§1) Screening of cytotoxic activity against a panel of sixty human tumor cell lines The selected compounds by NCI were evaluated for their anticancer activity in a two- stage process. […] Then, the output from the single dose screen is reported as a mean graph. […] Assay protocol. […] For a typical screening experiment, cells are inoculated into 96 well microtiter plates in 100 µL at plating densities ranging from 5000 to 40,000 cells/well depending on the doubling time of individual cell lines. […] After 24 h, two plates of each cell line are fixed in situ with TCA, to represent a measurement of the cell population for each cell line at the time of drug addition (Tz). The experimental drugs are solubilized in dimethyl sulfoxide at 400-fold the desired final maximum test concentration and stored frozen prior to use. At the time of drug addition, an aliquot of frozen concentrate is thawed and diluted to twice the desired final maximum test concentration with complete medium containing 50 µg/mL gentamicin. Additional four, 10-fold or ½ log serial dilutions are made to provide a total of five drug concentrations plus control. […] For adherent cells, the assay is terminated by the addition of cold TCA. […] The supernatant is discarded, and the plates are washed five times with tap water and air dried. […] Using the seven absorbance measurements [time zero, (Tz), control growth, (C), and test growth in the presence of drug at the five concentration levels (Ti)], the percentage growth is calculated at each of the drug concentrations levels. Percentage growth inhibition is calculated as: [(Ti Tz)/(C–Tz)] x 100 for concentrations for which Ti>/=Tz and [(Ti-Tz)/Tz] x 100 for concentrations for which Ti < Tz. Three dose response parameters are calculated for each experimental agent. […] The drug concentration resulting in total growth inhibition (TGI) is calculated from Ti = Tz. […] Values are calculated for each of these three parameters if the level of activity is reached; however, if the effect is not reached or is exceeded, the value for that parameter is expressed as greater or less than the maximum or minimum concentration tested.

M14 = assay: NCI 60 panel growth inhibition (SRB), melanoma; format: cell-based, human; conditions: M14, 10 μM
Method: as §1

MALME-3M = assay: NCI 60 panel growth inhibition (SRB), melanoma; format: cell-based, human; conditions: 10 μM
Method: as §1

MDA-MB-435 = assay: NCI 60 panel growth inhibition (SRB), melanoma; format: cell-based, human; conditions: MDA-MB-435, 10 μM
Method: as §1

SK-MEL-28 = assay: NCI 60 panel growth inhibition (SRB), melanoma; format: cell-based, human; conditions: SK-MEL-28, 10 μM
Method: as §1

SK-MEL-5 = assay: NCI 60 panel growth inhibition (SRB), melanoma; format: cell-based, human; conditions: SK-MEL-5, 10 μM
Method: as §1

UACC-257 = assay: NCI 60 panel growth inhibition (SRB), melanoma; format: cell-based, human; conditions: UACC-257, 10 μM
Method: as §1

UACC-62 = assay: NCI 60 panel growth inhibition (SRB), melanoma; format: cell-based, human; conditions: UACC-62, 10 μM
Method: as §1

786-0 = assay: NCI 60 panel growth inhibition (SRB), renal cancer; format: cell-based, human; conditions: 786-0, 10 μM
Method: as §1

A498 = assay: NCI 60 panel growth inhibition (SRB), renal cancer; format: cell-based, human; conditions: A498, 10 μM
Method: as §1

ACHN = assay: NCI 60 panel growth inhibition (SRB), renal cancer; format: cell-based, human; conditions: 10 μM
Method: as §1

CAKI-1 = assay: NCI 60 panel growth inhibition (SRB), renal cancer; format: cell-based, human; conditions: CAKI-1, 10 μM
Method: as §1

RXF 393 = assay: NCI 60 panel growth inhibition (SRB), renal cancer; format: cell-based, human; conditions: RXF 393, 10 μM
Method: as §1

SN12C = assay: NCI 60 panel growth inhibition (SRB), renal cancer; format: cell-based, human; conditions: 10 μM
Method: as §1

TK-10 = assay: NCI 60 panel growth inhibition (SRB), renal cancer; format: cell-based, human; conditions: TK-10, 10 μM
Method: as §1

UO-31 = assay: NCI 60 panel growth inhibition (SRB), renal cancer; format: cell-based, human; conditions: UO-31, 10 μM
Method: as §1

DU-145 = assay: NCI 60 panel growth inhibition (SRB), prostate cancer; format: cell-based, human; conditions: DU-145, 10 μM
Method: as §1

PC-3 = assay: as above; format: cell-based, human; conditions: PC-3, 10 μM
Method: as §1

BT-549 = assay: NCI 60 panel growth inhibition (SRB), breast cancer; format: cell-based, human; conditions: BT-549, 10 μM
Method: as §1

HS 578T = assay: as above; format: cell-based, human; conditions: 10 μM
Method: as §1

MCF7 = assay: as above; format: cell-based, human; conditions: MCF7, 10 μM
Method: as §1

MDA-MB-231/ATCC = assay: as above; format: cell-based, human; conditions: 10 μM
Method: as §1

MDA-MB-468 = assay: as above; format: cell-based, human; conditions: MDA-MB-468, 10 μM
Method: as §1

T-47D = assay: as above; format: cell-based, human; conditions: 10 μM
Method: as §1

Compound	GI% (U251)	GI% (LOX IMVI)	GI% (M14)	GI% (MALME-3M)	GI% (MDA-MB-435)	GI% (SK-MEL-28)	GI% (SK-MEL-5)	GI% (UACC-257)	GI% (UACC-62)	GI% (786-0)	GI% (A498)	GI% (ACHN)	GI% (CAKI-1)	GI% (RXF 393)	GI% (SN12C)	GI% (TK-10)	GI% (UO-31)	GI% (DU-145)	GI% (PC-3)	GI% (BT-549)	other results
O=C(COc1ccccc1-c1nc2ccccc2s1)NN=C1C(=O)Nc2ccccc21 [Compound 9a, 2-(2-(Benzo[d]thiazol-2-yl)phenoxy)-N′-(2-oxoindolin-3-ylidene)acetohydrazide]	– (GI% < 5%)	– (GI% < 5%)	– (GI% < 5%)	– (GI% < 5%)	– (GI% < 5%)	– (GI% < 5%)	13.43%	6.77%	13.82%	– (GI% < 5%)	– (GI% < 5%)	– (GI% < 5%)	22.46%	5.86%	7.64%	– (GI% < 5%)	26.54%	6.07%	19.26%	– (GI% < 5%)	GI% (HS 578T): 5.85%; GI% (MCF7): 25.11%; GI% (MDA-MB-231/ATCC): – (GI% < 5%); GI% (MDA-MB-468): – (GI% < 5%); GI% (T-47D): 12.02%; melting point: 238 to 240 °C
COc1ccc2c(c1)C(=NNC(=O)COc1ccccc1-c1nc3ccccc3s1)C(=O)N2 [Compound 9c, 2-(2-(Benzo[d]thiazol-2-yl)phenoxy)-N′-(5-methoxy-2-oxoindolin-3-ylidene)acetohydrazide]	– (GI% < 5%)	9.06%	5.86%	13.58%	19.69%	– (GI% < 5%)	44.97%	– (GI% < 5%)	28.02%	5.40%	– (GI% < 5%)	9.04%	28.09%	23.06%	12.43%	– (GI% < 5%)	35.66%	6.75%	43.83%	18.71%	GI% (HS 578T): – (GI% < 5%); GI% (MCF7): 18.66%; GI% (MDA-MB-231/ATCC): – (GI% < 5%); GI% (MDA-MB-468): 29.51%; GI% (T-47D): 36.38%; melting point: 240 to 242 °C
COc1cccc(-c2nc3ccccc3s2)c1OCC(=O)NN=C1C(=O)Nc2ccccc21 [Compound 9g, 2-(2-(Benzo[d]thiazol-2-yl)-6-methoxyphenoxy)-N′-(2-oxoindolin-3-ylidene)acetohydrazide]	8.36%	25.54%	– (GI% < 5%)	13.82%	10.97%	– (GI% < 5%)	95.02%	– (GI% < 5%)	46.29%	– (GI% < 5%)	– (GI% < 5%)	14.78%	34.75%	35.85%	18.49%	– (GI% < 5%)	41.81%	– (GI% < 5%)	44.41%	25.83%	GI% (HS 578T): 16.30%; GI% (MCF7): 26.62%; GI% (MDA-MB-231/ATCC): 18.32%; GI% (MDA-MB-468): 50.47%; GI% (T-47D): 29.32%; melting point: 246 to 248 °C
COc1cccc(-c2nc3ccccc3s2)c1OCC(=O)NN=C1C(=O)Nc2ccc(C)cc21 [Compound 9h, 2-(2-(Benzo[d]thiazol-2-yl)-6-methoxyphenoxy)-N′-(5-methyl-2-oxoindolin-3-ylidene)acetohydrazide]	5.89%	– (GI% < 5%)	9.67%	16.42%	– (GI% < 5%)	– (GI% < 5%)	62.94%	– (GI% < 5%)	34.75%	9.21%	– (GI% < 5%)	11.83%	36.68%	25.38%	9.88%	– (GI% < 5%)	38.34%	– (GI% < 5%)	46.62%	18.44%	GI% (HS 578T): 9.01%; GI% (MCF7): 37.74%; GI% (MDA-MB-231/ATCC): 13.89%; GI% (MDA-MB-468): 26.10%; GI% (T-47D): 41.06%; melting point: 244 to 246 °C
COc1ccc2c(c1)C(=NNC(=O)COc1c(OC)cccc1-c1nc3ccccc3s1)C(=O)N2 [Compound 9i, 2-(2-(Benzo[d]thiazol-2-yl)-6-methoxyphenoxy)-N′-(5-methoxy-2-oxoindolin-3-ylidene)acetohydrazide]	– (GI% < 5%)	– (GI% < 5%)	7.92%	12.81%	– (GI% < 5%)	– (GI% < 5%)	51.82%	– (GI% < 5%)	25.33%	5.62%	– (GI% < 5%)	6.51%	24.98%	15.41%	14.66%	– (GI% < 5%)	30.29%	– (GI% < 5%)	43.62%	16.10%	GI% (HS 578T): – (GI% < 5%); GI% (MCF7): 23.12%; GI% (MDA-MB-231/ATCC): 10.30%; GI% (MDA-MB-468): 30.66%; GI% (T-47D): 37.57%; melting point: 144 to 146 °C
COc1cccc(-c2nc3ccccc3s2)c1OCC(=O)NN=C1C(=O)Nc2ccc([N+](=O)[O-])cc21 [Compound 9j, 2-(2-(Benzo[d]thiazol-2-yl)-6-methoxyphenoxy)-N′-(5-nitro-2-oxoindolin-3-ylidene)acetohydrazide]	– (GI% < 5%)	– (GI% < 5%)	8.57%	12.74%	6.00%	– (GI% < 5%)	24.59%	5.08%	11.06%	– (GI% < 5%)	– (GI% < 5%)	11.44%	28.19%	9.05%	11.67%	– (GI% < 5%)	25.41%	6.78%	18.80%	– (GI% < 5%)	GI% (HS 578T): – (GI% < 5%); GI% (MCF7): 25.07%; GI% (MDA-MB-231/ATCC): 8.73%; GI% (MDA-MB-468): 6.21%; GI% (T-47D): – (GI% < 5%); melting point: 276 to 278 °C
